Read-outs that look alike come from different tables or passages of the source.
Columns and labels:
[1] = tested on: Methicillin-resistant Staphylococcus aureus; conditions: 0.005% PHMB, 10-minute contact time, 5% bovine serum albumin soil, n = 2
Description: This Example utilized 1.5-milliliter tubes containing a 1-milliliter blend of phosphate-buffered saline (pH 7.2) and 5% (w/v) bovine serum albumin soil. The tubes were placed in electric heat blocks set for 22° C., 30° C., 40° C. and 50° C., respectively. The tubes remained in the electric heat blocks for approximately 10 minutes.
After 10 minutes, 0.005% (by weight) active polyhexamehtylene biguanide (PHMB) (commercially available as Cosmocil® CQ from Arch Biocides, Inc., United Kingdom) was added to two tubes at each temperature level. Duplicate tubes without PHMB at each temperature were also made.
The tubes were then vortexed and Methicillin-resistant Staphylococcus aureus (approximately 1×10^5 colony forming units (CFU)) was then added to each tube. All of the tubes were then placed back into the heat blocks at their respective temperatures.
Following a 10-minute contact time, 0.1 milliliters of each sample was transferred to 0.9 milliliters letheen broth to neutralize the PHMB activity. The letheen samples were then plated in duplicate on Tryptic Soy agar plates using a WASP2 spiral plater (commercially available from Don Whitley Scientific, Ltd., Yorkshire, United Kingdom). The plates were inverted and incubated at 37±2° C. for 48 hours.
After 48 hours, the plates were evaluated using a total plate count to determine the biocidal efficacy of each sample.

Staphylococcus aureus = test: Biocidal efficacy of magnesium chloride in combination with PHMB, total plate count; assay type: cell-based; conditions: 15-minute contact time
Description: A 1.5-milliliter tube was prepared using magnesium chloride in water.
Two control samples were also prepared. One control sample was filled with 0.850 milliliters magnesium chloride. A second control sample was prepared by introducing 0.850 milliliters sterile water.
The tubes were then vortexed until an increase in temperature was observed.
0.05 milliliters of 1×10^7 CFU/milliliter culture of Staphylococcus aureus was added to each tube. After a 15-minute contact time, 0.1 milliliters of each tube was transferred into 0.9 milliliters letheen broth. To the broth, 10 milligrams/milliliter sodium thiosulfate was also added. The tubes were again vortexed. After vortexing, 0.1 milliliters of each tube was plated on Tryptic soy agar plates. The plates were inverted and incubated at 37° C. for 24 hours. An inoculum control plate was also plated to determine the concentration of the inoculum
After 24 hours, the plates were evaluated using a total plate count to determine the biocidal efficacy of each sample.

Molecule: polyhexamethylene biguanide [PHMB]
- Total CFU Recovered MRSA ([1]; 22° C.): 3.5
- Total CFU Recovered MRSA ([1]; 30° C.): 2.9
- Total CFU Recovered MRSA ([1]; 40° C.): 2.1
- Total CFU Recovered MRSA ([1]; 50° C.): <2
- LOG10 recovered (Staphylococcus aureus; PHMB 0.00025%, magnesium chloride 0%): 4.8

Molecule: [Cl-].[Cl-].[Mg+2] [Magnesium Chloride, magnesium chloride]
- LOG10 recovered (Staphylococcus aureus; PHMB 0%, magnesium chloride 50%): 1.9

Source: patent US20070149435A1, “Cleansing composition including microencapsulated delivery vehicles” (Kimberly-Clark Worldwide, Inc., priority 2005, published 2007)
